{"source": "patent US20100048457A1", "about": "“GLYCOPROTEIN FOR TREATING CHRONIC OBSTRUCTIVE PULMONARY DISEASES” (Guangzhou Konzern Pharmacetuical Co. Ltd, priority 2007, published 2010)", "key": {"[1]": {"system": "ciliary movement in trachea mucous of rabbits", "assay": "Ciliary movement in trachea mucous", "set-up": "species or system rabbit; key to Ciliary movement: +++: All ciliary active in field of vision:; ++: ⅓~⅔ ciliary active in field of vision:; +: Less than ⅓ ciliary active in field of vision:; −−: All ciliary inactive in field of vision:", "settings": "Ach, Dosage (g/L) 0.1", "experimental": "The trachea mucous is exposed and washed by Ringer's solution (37° C.), then observe the sample by anatomical lens.\nAdd an ink into trachea mucous, the ink will move to one way (towards larynx), measure the velocity by micrometer and stopwatch, then calculate the moving velocity of mucus moving (second/2 mm)."}, "[2]": {"system": "isolated bronchitis in contractive state", "assay": "Lung overfall of isolated bronchitis in contractive state, before and after dosing", "set-up": "species or system guinea pig", "settings": "aminophylline group", "experimental": "(§1) The isobarical lavage machine is infused with Locke's solution, 37° C., the level of bottom is 60-100 cm higher than the T pipe. Guinea pigs are narcosis under intraperitoneal anesthesia by 1.5 ml 1% pentobarbital. Take 2 ml blood from cervical artery for detection of inflammatory factors. Kill the animal and open its chest, separate and cut down the trachea, and then bring out the trachea and the lung together, place in the Locke's solution, 37° C. Extrude the air out of the lung, and ligate the trachea with sleeve and connect with the T pipe. Open the T pipe to let Locke's solution flow into the lung, adjust the velocity of flow to about 25 ml/min. Take 5 ml lavage fluid for detection of inflammatory factors. When the velocity of flow is stable, animals are given 0.5% ovalbumin to stimulate the twitching of bronchia. After 30 minutes, observe and record the flux per minute, 6-10 minutes.\nAfter 6-minute stimulating, the lung overfall of isolated bronchitis becomes stable."}, "IL-4": {"system": "IL-4", "assay": "IL-4 in blood serum and BALF of asthmatic guinea pig (ELISA)", "type": "in vivo", "settings": "aminophylline group", "experimental": "(§2) 11) IL-2, IL-4 assaying box for ELISA: provided by Shenzhen Jing Mei Co., Ltd.\nas §1"}, "[3]": {"system": "model animal with emphysema and pulmonary hypertension", "assay": "Experimental emphysema and pulmonary hypertension model", "type": "in vivo, golden hamster", "experimental": "Preparation of model animal with emphysema and pulmonary hypertension: choose 75 from 90 male golden hamster randomly, 100-150 g each, to make model mouse. The model-building is performed on elected 75 animals under intraperitoneal anesthesia. Then open the mouse and exposure its throat, insert a pipe and inject the medicine fluid (60 U/100 g weight) into the body through the pipe, then shake the animal to let the medicine equality. Animals are wake in several hours, and feed normally. Other 15 golden hamster are acted as normal control group (Group A), the same volume of saline is injected in each trachea of each animal.\nAfter perfusion of the medicine by gavage, animals are killed to measure the following:\nRight Systolic Pressure (RSP): animals are cut in the neck to expose the right jugular vein, then insert the pipe into the right jugular vein to right ventricle, the pipe also connects the physiological monitor (RM-6300, Japan) for blood pressure measuring. The right carotic artery is also exposed and cannulated for blood pressure measuring.\nRight Ventricle Hypertrophy Index (RVHI): kill the animal by bleeding, open the chest and bring the heart out, then cut the right ventricle down. Wash the heart by saline, absorb the water by filter paper, and then weight the right ventricle, and weight the total weight of the left ventricle and atrioventricular septalium. RVHI=weight of right ventricle/(total weight of left ventricle and atrioventricular septalium)\nPneumonic bronchoalveolar lavage fluid analyse: isobarical lavage machine is infused with Locke's solution, 37° C., the level of bottom is 60-100 cm higher than the T pipe. Kill the animal and open its chest, separate and cut down the trachea, and then bring out the trachea and the lung together, place in the Locke's solution, 37° C. Extrude the air out of the lung, and ligate the trachea with sleeve and connect with the T pipe. Open the T pipe to let Locke's solution flow into the lung, adjust the velocity of flow to about 25 ml/min. Concentrate the lavage 400 g by the centrifugal for 10 minutes, remove the supernatant, then add physiological saline into the deposit to make the cell suspend. Count the number of cells of bronchoalveolar lavage fluid ([…]) by inverted microscope, four times for one sample. Count the number of cells (/ml/g) of bronchoalveolar lavage fluid (BALF). Dye the smear of the suspend with HE, then count the ratio of macrophage in cell types.\nStatistic treatment: data is expressed by x±s, and analyzed by one-way ANOVA, and compare with each group by Newman-Keuls method, P<0.05 meants distinct difference."}, "IL-2": {"system": "IL-2", "assay": "IL-2 in blood serum and BALF of asthmatic guinea pig (ELISA)", "type": "in vivo", "settings": "aminophylline group", "experimental": "as §2, §1"}, "[4]": {"system": "model mouse with chronic bronchitis", "assay": "Cough of chronic bronchitis (SO2 stimulation)", "type": "in vivo", "settings": "Dextromethorphan 15 mg/kg (positive control, also dexamethason 1.2 mg/kg)", "experimental": "Preparation of model mouse with chronic bronchitis: choose 90 white mice, 20-25 g each, male or female Divide the mice randomly into six groups. In normal control group, no S02 stimulation is given, mice are feeding normally. In other groups, the following SO2 stimulation is given: place a utensil with 0.5 g anhydrous sodium sulfite in an 8 L bell cover, and place mice of each group into the bell cover, and add 50% vitriol 5 ml into the utensil, and take out the mice after 2 minutes; Once every day, 21 days.\nDuring the dosing, observe the whole condition of animals in each group, and give the above SO2 stimulation to them in one hour after the last dosing. Record the delitescence of cough of each animal, and record the times of cough of each animal in 3 minutes."}, "[5]": {"system": "model mouse with acute bronchitis", "assay": "Cough of acute bronchitis (SO2 stimulation)", "type": "in vivo", "settings": "Dextromethorphan 15 mg/kg oral", "experimental": "Preparation of model mouse with acute bronchitis: choose white mice, 20-25 g each, male or female. Pre-select method: place a utensil with 0.5 g anhydrous sodium sulfite in an 1 L beaker, add 50% vitriol 5 ml into the utensil, and place mice of each group into the beaker after 15 seconds, and take out the mice after 30 seconds. The mouse which starts cough in 3 minutes is an eligible mouse. Record the delitescence of cough of each animal, and record the times of cough of each animal. […] During the dosing, observe the whole condition of animals in each group, and give the above SO2 stimulation to them for 30 seconds in one hour after the last dosing. Record the delitescence of cough of each mouse, and record the times of cough of each animal in 3 minutes."}, "[6]": {"system": "Staphyloccocus aureus Rosenbach", "assay": "Treatment of infection by Staphyloccocus aureus Rosenbach in vivo", "source_text": "(§3) 2.10.1 select some bacterial related to acute pharyngitis, such as Staphyloccocus aureus Rosenbach, and α-hemolytic streptococcus, inject above bacterial into animals, such as mouse, by intraperitoneal dosing or subcutaneous injection, which will make certain animal death. Dosed before infecting the bacterial, and dosed after infecting the bacterial, the animals will be observed for eating, drinking, and movement.\n(§4) Observe and record the eating, drinking, and movement in 4 days as the normal value. Besides of control group, animals in other groups are injected 0.5 ml Staphyloccocus aureus Rosenbach by intraperitoneal dosing or subcutaneous injection In the next day, animals are feed 5 days by gavage, twice every day. Observe the condition of eating, drinking, and movement, and mean growth rates, and then compare with control group."}, "[7]": {"system": "α-hemolytic streptococcus", "assay": "Experimental treatment of infection by α-hemolytic streptococcus in vivo", "settings": "Ofloxacin 500 mg/kg", "source_text": "as §3, §4\nThe other methods are the same as the section 2.10.1."}, "[8]": {"system": "model rat with chronic bronchitis", "assay": "Treatment of pneumonia, histology of trachea and pneumonic tissue", "type": "in vivo, SD rat", "settings": "positive group, dexamethason 1.2 mg/kg (FIG. 5), gavage 10 days", "description": "Preparation of model rat with chronic bronchitis: choose 60 SD rats, 250-300 g each, male or female. Divide the rats randomly into six groups, one is normal control group, the other five groups are model groups which are modeling according to section 2.4.\nDuring the dosing, observe the whole condition of animals in each group, and carry out the following procedures in ten days after the last dosing: The rats are narcosis under intraperitoneal anesthesia by 0.4 ml/100 g 10% chloral hydrate, and put on the operating table, open the neck and chest, bring out the trachea and pneumonic tissue, and then observe the condition of the sample. The sample is fixed by 10% formalin solution, and embedded by paraffin, and cut into slices, and dyed by HE. The inflammatory pathological changes are observed by microscope, including the integrality of epidermis, thickness of glands, infiltration of inflammatory cells in tracheal mucous, follicular lymph, and thickness of tracheal wall."}, "[9]": {"settings": "Ofloxacin 500 mg/kg, gavage twice every day"}}, "data": [{"smiles": "CC(=O)OCC[N+](C)(C)C.[Cl-]", "note": "[Ach, Acetylcholine chloride]", "values": [{"measurement": "Ciliary movement", "setting": "[1]", "value": "+++"}, {"measurement": "Moving velocity", "setting": "[1]; ink on trachea mucous", "value": "5.36 ± 0.64", "unit": "second/2 mm"}]}, {"smiles": "Cn1c(=O)c2[nH]cnc2n(C)c1=O", "note": "[Aminophylline]", "values": [{"measurement": "lung overfall of isolated bronchitis in contractive state, After dosing", "setting": "[2]", "value": "17.13 ± 3.08"}, {"measurement": "lung overfall of isolated bronchitis in contractive state, Before dosing", "setting": "[2]; baseline before dosing", "value": "9.45 ± 1.86"}, {"measurement": "lung overfall of isolated bronchitis in contractive state, After dosing", "setting": "[2]; listed as aminophylline", "value": "increases obviously"}, {"measurement": "IL-4 in BALF", "setting": "IL-4", "value": "26.81 ± 7.76", "unit": "b pg/ml"}, {"measurement": "IL-4 in serum", "setting": "IL-4", "value": "1.78 ± 1.56", "unit": "b pg/ml"}, {"measurement": "amount of IL-4 in blood serum and BALF", "setting": "IL-4; summary of table 9", "value": "decreases obviously"}, {"measurement": "MS", "setting": "[3]; aminophylline positive control group", "value": "96.7 ± 9.6", "unit": "%"}, {"measurement": "RVHI", "setting": "[3]; aminophylline positive control group, gavage", "value": "28.62 ± 8.81", "unit": "%"}, {"measurement": "BALF", "setting": "[3]; cells in bronchoalveolar lavage fluid, aminophylline positive control group", "value": "364.8 ± 95.7 /mm^3"}, {"measurement": "pathological changes of emphysema", "setting": "[3]; comparing with the model group, aminophylline group", "value": "non-obviously improvement"}, {"measurement": "IL-2 in BALF", "setting": "IL-2", "value": "0.13 ± 0.08", "unit": "b pg/ml"}, {"measurement": "IL-2 in serum", "setting": "IL-2", "value": "1.45 ± 0.86", "unit": "b pg/ml"}, {"measurement": "amount of IL-2 in blood serum and BALF", "setting": "IL-2; summary of table 9", "value": "decreases obviously"}]}, {"smiles": "COc1ccc2c(c1)[C@]13CCCC[C@@H]1[C@H](C2)N(C)CC3", "note": "[Dextromethorphan]", "values": [{"measurement": "Delitescence", "setting": "[4]; delitescence of cough", "value": "17.70 ± 4.521"}, {"measurement": "Times of Cough", "setting": "[4]; in 3 minutes", "value": "77.60 ± 9.88"}, {"measurement": "Delitescence", "setting": "[5]; delitescence of cough", "value": "30.40 ± 9.91"}, {"measurement": "Times of Cough", "setting": "[5]; in 3 minutes", "value": "35.20 ± 5.65"}]}, {"smiles": "CC1COc2c(N3CCN(C)CC3)c(F)cc3c(=O)c(C(=O)O)cn1c23", "note": "(centres unmarked) [Ofloxacin]", "values": [{"measurement": "After infection, dringking, Day 1", "setting": "[6]; [9]", "value": 2.7, "unit": "mL"}, {"measurement": "After infection, dringking, Day 2", "setting": "[6]; [9]", "value": 3.2, "unit": "mL"}, {"measurement": "After infection, dringking, Day 3", "setting": "[6]; [9]", "value": 3.0, "unit": "mL"}, {"measurement": "After infection, dringking, Day 4", "setting": "[6]; [9]", "value": 3.5, "unit": "mL"}, {"measurement": "After infection, dringking, Day 5", "setting": "[6]; [9]", "value": 4.3, "unit": "mL"}, {"measurement": "After infection, eating, Day 1", "setting": "[6]; [9]", "value": 1.9, "unit": "g"}, {"measurement": "After infection, eating, Day 2", "setting": "[6]; [9]", "value": 2.5, "unit": "g"}, {"measurement": "After infection, eating, Day 3", "setting": "[6]; [9]", "value": 3.2, "unit": "g"}, {"measurement": "After infection, eating, Day 4", "setting": "[6]; [9]", "value": 3.6, "unit": "g"}, {"measurement": "After infection, eating, Day 5", "setting": "[6]; [9]", "value": 3.9, "unit": "g"}, {"measurement": "Survive", "setting": "[6]; of 15 animals, Ofloxacin group", "value": 15}, {"measurement": "After infection, dringking, Day 1", "setting": "[7]", "value": 2.3, "unit": "mL"}, {"measurement": "After infection, dringking, Day 2", "setting": "[7]", "value": 3.6, "unit": "mL"}, {"measurement": "After infection, dringking, Day 3", "setting": "[7]", "value": 3.8, "unit": "mL"}, {"measurement": "After infection, dringking, Day 4", "setting": "[7]", "value": 3.8, "unit": "mL"}, {"measurement": "After infection, dringking, Day 5", "setting": "[7]", "value": 4.2, "unit": "mL"}, {"measurement": "After infection, eating, Day 1", "setting": "[7]", "value": 2.1, "unit": "g"}, {"measurement": "After infection, eating, Day 2", "setting": "[7]", "value": 2.3, "unit": "g"}, {"measurement": "After infection, eating, Day 3", "setting": "[7]", "value": 2.9, "unit": "g"}, {"measurement": "After infection, eating, Day 4", "setting": "[7]", "value": 3.2, "unit": "g"}, {"measurement": "After infection, eating, Day 5", "setting": "[7]", "value": 4.5, "unit": "g"}]}, {"smiles": "C[C@@H]1C[C@H]2[C@@H]3CCC4=CC(=O)C=C[C@]4(C)[C@@]3(F)[C@@H](O)C[C@]2(C)[C@@]1(O)C(=O)CO", "note": "[dexamethason]", "values": [{"measurement": "inflammatory pathological changes of trachea and pneumonic tissue (microscope)", "setting": "[8]", "value": "obviously different from the model control group"}]}]}
